Results taken from patent US8592458B2 (priority 2005, dated 2013).
Where a name gives a salt, the structure may show the parent alone. Read-outs that look alike come from different tables or passages of the source.

Legend:
[1] = molecular target: α7 nAChR (Rattus norvegicus, UniProt Q05941); assay type: binding; conditions: for RELATIVE A7/A4B2 SELECTIVITY / Ki: rat brain membranes; for RELATIVE A7/A4B2 SELECTIVITY: Ki alpha4beta2 / Ki alpha7, divided by the alpha7 selectivity of DMXBA (1.95), DMXBA set to 1.00; for Ki α4β2/α7 Ratio: alpha7 selectivity, not normalized with respect to DMXBA selectivity; for Ki: [125I]alpha-bungarotoxin, n = 2
Chain of α7 nAChR (Q05941 23-502): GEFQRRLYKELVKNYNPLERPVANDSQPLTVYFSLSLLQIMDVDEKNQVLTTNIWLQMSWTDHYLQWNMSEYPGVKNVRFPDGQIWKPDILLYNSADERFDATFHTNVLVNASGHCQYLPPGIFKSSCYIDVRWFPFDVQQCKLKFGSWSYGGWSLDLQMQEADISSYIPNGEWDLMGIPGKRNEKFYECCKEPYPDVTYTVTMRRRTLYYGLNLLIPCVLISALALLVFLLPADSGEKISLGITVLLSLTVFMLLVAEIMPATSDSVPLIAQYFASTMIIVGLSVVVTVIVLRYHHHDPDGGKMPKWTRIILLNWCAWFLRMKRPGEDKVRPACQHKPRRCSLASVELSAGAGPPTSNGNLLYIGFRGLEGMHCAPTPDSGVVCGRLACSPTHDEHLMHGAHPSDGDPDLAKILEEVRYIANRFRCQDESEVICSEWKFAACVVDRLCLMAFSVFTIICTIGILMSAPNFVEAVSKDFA

[2] = Octanol/water partition coefficient by RP-HPLC; assay type: physicochemical; conditions: 1-octanol/sodium phosphate buffer; 1-octanol / 10 mM sodium phosphate buffer pH 7.4 with 150 mM NaCl, corrected for ionization
Method: P is the ratio of the concentration of an un-ionized form of a compound in octanol relative to the unionized concentration of the compound in an aqueous phase containing 150 mM NaCl (to approximate physiological conditions), after the two phases have equilibrated. Log P values were determined for each test compound by RP-HPLC analysis. Approximately 1 mg of each compound was weighed out and placed in equal volumes, 3 ml 10 mM sodium phosphate buffer, pH 7.4, which contained 150 mM NaCl, and 1-octanol. Previously, equal volumes of the sodium phosphate buffer and 1-octanol were added to a separatory funnel and allowed to equilibrate overnight. The equilibrated sodium phosphate buffer was checked prior to its addition to the compound for a pH of 7.4. Once these phases were added to the weighed compound, the solutions were allowed to equilibrate overnight on a gentle shaker at room temperature. The samples were centrifuged at […] for 5 minutes and octanol phase carefully removed with a Pasteur pipette. The pH of the water phase was remeasured in order to calculate the corrected Log P value.
Since large concentrations of octanol cannot be directly injected into the HPLC without affecting the elution of the compound being measured, the compound was extracted from the separated octanol phase with an acidic 150 mM NaCl solution adjusted to a pH of approximately 2.6 (with 100 mM glacial acetic acid). The acidic saline solution was allowed to gently mix with the octanol phase for 20 minutes on a shaker at room temperature. The samples containing the octanol and acidic saline phases were then centrifuged at 1,000×g for 5 minutes and the upper octanol phase was carefully removed with a Pasteur pipette. This back extraction step was repeated at least two and sometimes three times. All three or four back extracted solutions for a particular compound were then combined. Both the original aqueous and the back extracted octanol phases were then diluted with 50 mM ammonium acetate buffer, pH 4.5. The diluted samples were then transferred by pipette to autosampler tubes and subsequently […] of each diluted sample was injected into the HPLC. The area under the curve (AUC) of an absorbance peak was determined for samples from both (octanol and aqueous) of the original phases. Taking into account the dilutions of each sample phase during its preparation for HPLC determination, Log P (taking into consideration the percent ionization at pH 7.4) was then calculated.

[3] = Spectrophotometric pKa determination of the imine nitrogen; assay type: physicochemical; conditions: for % ionized: percent ionization at pH 7.4
Method: Thirteen different pH values in the titration region were evaluated (pH: 4, 5, 6, 7, 7.2, 7.5, 7.8, 8, 8.2, 8.5, 8.8, 9, 10). A specific concentration of 3-benzylidene-3-arylidene-anabaseine compound, 1.3×10^−3 M, was added to the potassium phosphate buffers at varied pH values. Each tube was then vortexed and immediately read in a Beckman spectrophotometer. The same glass cuvette was used with every sample. The glass cuvette was thoroughly rinsed with distilled deionized water between different pH samples. The wavelength scan was set to a range of 250-600 nm. The pH with the highest change in absorbance was determined. The wavelength at the highest change in absorbance and the absorbance values for all of the different pH samples at this wavelength were entered into the Enzfitter software (Elsevier-Biosoft, Cambridge, UK) in order to estimate each pKa value.

[4] = molecular target: α4β2 nAChR (Rattus norvegicus, UniProt P09483+P12390); test: Radioligand binding, displacement of [3H]cytisine from rat brain membranes; conditions: n = 2
Chain of α4β2 nAChR (P09483 31-630): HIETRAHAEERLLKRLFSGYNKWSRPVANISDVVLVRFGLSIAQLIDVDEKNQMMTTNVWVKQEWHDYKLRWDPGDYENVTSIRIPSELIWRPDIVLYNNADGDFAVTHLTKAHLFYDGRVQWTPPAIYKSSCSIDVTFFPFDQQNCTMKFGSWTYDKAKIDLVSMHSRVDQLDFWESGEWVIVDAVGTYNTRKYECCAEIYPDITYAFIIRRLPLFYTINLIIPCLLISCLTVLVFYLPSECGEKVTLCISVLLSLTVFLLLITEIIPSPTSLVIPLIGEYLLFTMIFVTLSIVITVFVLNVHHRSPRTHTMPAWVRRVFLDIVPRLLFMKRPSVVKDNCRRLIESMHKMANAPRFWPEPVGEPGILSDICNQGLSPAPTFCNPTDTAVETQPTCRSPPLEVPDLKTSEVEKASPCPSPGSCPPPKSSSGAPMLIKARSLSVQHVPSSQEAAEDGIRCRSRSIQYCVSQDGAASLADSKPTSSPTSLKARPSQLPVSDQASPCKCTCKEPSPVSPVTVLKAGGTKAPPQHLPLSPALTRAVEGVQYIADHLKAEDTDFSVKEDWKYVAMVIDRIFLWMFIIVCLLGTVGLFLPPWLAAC
Chain of α4β2 nAChR (P12390 25-500): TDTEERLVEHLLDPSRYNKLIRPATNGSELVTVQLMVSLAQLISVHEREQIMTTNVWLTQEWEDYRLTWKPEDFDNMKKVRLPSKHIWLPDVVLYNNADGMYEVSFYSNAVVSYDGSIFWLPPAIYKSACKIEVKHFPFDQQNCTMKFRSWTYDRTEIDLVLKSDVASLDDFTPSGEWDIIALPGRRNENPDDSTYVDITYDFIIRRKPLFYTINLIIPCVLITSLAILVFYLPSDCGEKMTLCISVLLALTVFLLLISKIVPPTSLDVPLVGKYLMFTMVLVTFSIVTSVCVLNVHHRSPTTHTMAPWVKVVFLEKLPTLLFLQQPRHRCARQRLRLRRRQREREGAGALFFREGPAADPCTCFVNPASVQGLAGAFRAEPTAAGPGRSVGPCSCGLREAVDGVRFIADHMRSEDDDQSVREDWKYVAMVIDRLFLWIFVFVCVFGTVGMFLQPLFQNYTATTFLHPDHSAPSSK
Method: Assays were performed using the experimental compound to compete for its nAChR binding site with a radioligand that specifically labels either the α4β2 or the α7 nAChR in homogenized Sprague-Dawley rat brain membrane. These assays were used to determine the IC50 of the experimental compounds, which is then used to determine the KI with the Cheng-Prusoff equation.
The 3-arylidene-anabaseine compound was suspended in 50 mM Tris binding saline, with 2 mg/ml BSA, if it was a salt, or in methanol if it was a free base, and dilutions were made in 2 mg/ml BSA Tris binding saline. The final solutions were incubated at 37° C. for approximately 2.5 hours. Once the reaction was assumed to be at equilibrium, it was stopped by harvesting the tissue onto GF/C filters, which were soaked for 45 minutes in a 0.5% polyethylenamine solution to reduce non-specific binding of the radioligand to the filter, using a Brandel tissue harvester. The filters were then placed in gamma tubes and counted on a Beckman counter for 5 minutes per sample. The counts per minute were then assessed, the results were entered, and the IC50s and KIs were determined using the software program Graphpad Prism®. The [^3H]cytisine experiments were performed in a similar manner. First the addition of all of the components: 1 nM [^3H]cytisine, 3-benzylidene-3-arylidene-anabaseine compound (5 nM-50 μM), 0.2 mg rat brain homogenate, and 2 mg/ml BSA Tris solution at a pH of 7.4 to bring the final volume up to 0.5 ml in each tube.
To assess non-specific binding, 1 mM nicotine was added in place of the 3-arylidene-anabaseine. To assess total binding, only the radioligand, tissue, and BSA Tris solution were added. The incubation time and the temperature were altered in this protocol to produce the greatest difference between total and non-specific binding and to maximize the affinity of the radioligand for the receptor, respectively. The incubation time for [^3H]cytisine was 4 hours at 4° C. […] The counts per minute were entered into GraphPad Prism® where the IC50s and the KIs were assessed.
Rat brain membrane was obtained frozen from Pel-Freez Biologicals (Rogers, Ariz.). The protein concentration of the rat brain homogenate was assessed using the bicinchoninic acid (BCA) protein assay kit from Pierce (Rockford, Ill.).
Displacement of ^125I-labelled alpha-bungarotoxin (BTX) measured binding to alpha7 receptors; displacement of [^3H]-labelled cytisine measured binding to alpha4beta2 receptors. […] Nonspecific binding of each radioligand was measured in the presence of 1.0 mM nicotine. […] Bound [3H] […] was measured in a liquid scintillation counter, whereas [125]BTX was measured with use of a Biogamma counter (both from Beckman Coulter).

[5] = imine nitrogen, room temperature, 50 mM potassium phosphate buffer, 150 mM NaCl

In the case of 4′-Methyl-DMXBA, the “RELATIVE A7/A4B2 SELECTIVITY” value [1] is reported as 14.8.
`COc1ccc2cc(/C=C3\CCCN=C3c3cccnc3)ccc2c1` (as salt: hydrochloride) [3-[(6-Methoxy-naphth-2-yl)-methylene]-anabaseine dihydrochloride] gave a melting point of 223 to 226 °C.
For `CC1CCN=C(c2cccnc2)C1` (racemic) [(S,R)-4-Methyl-Anabaseine, 4-Methyl-anabaseine], the “RELATIVE A7/A4B2 SELECTIVITY” value [1] was 0.69.
In the case of `COc1ccc(C=C2C(c3cccnc3)=NCCC2C)c(OC)c1` (racemic) [(S,R)-4-Methyl-DMXBA, 3-(2,4-dimethoxybenzylidene)-(4-methyl)-3,4,5,6-tetrahydro-2,3′-bipyridine], the “RELATIVE A7/A4B2 SELECTIVITY” value [1] is reported as 4.10.
With `CC1CCC(c2cccnc2)=NC1` (racemic) [(S,R)-5-Methyl-Anabaseine, 5-Methyl-Anabaseine] the “RELATIVE A7/A4B2 SELECTIVITY” value [1] was 0.38.
For `COc1ccc(C=C2CC(C)CN=C2c2cccnc2)c(OC)c1` (racemic) [(S,R)-5-Methyl-DMXBA, 3-(2,4-dimethoxybenzylidene)-(5-methyl)-3,4,5,6-tetrahydro-2,3′-bipyridine], the “RELATIVE A7/A4B2 SELECTIVITY” value [1] was 1.31.
For `CC1CCCC(c2cccnc2)=N1` (racemic) [(S,R)-6-Methyl-Anabaseine, 6-methyl-anabaseine], the “RELATIVE A7/A4B2 SELECTIVITY” value [1] was 1.19.
For `COc1ccc(C=C2CCC(C)N=C2c2cccnc2)c(OC)c1` (racemic) [(S,R)-6-Methyl-DMXBA, 3-(2,4-dimethoxybenzylidene)-(6-methyl)-3,4,5,6-tetrahydro-2,3′-bipyridine], the “RELATIVE A7/A4B2 SELECTIVITY” value [1] was 3.67.
For `COc1cc(O[C@@H]2O[C@H](C(=O)O)[C@@H](O)[C@H](O)[C@H]2O)ccc1C=C1CCCN=C1c1cccnc1` [3-(4-Beta-Glucuronidyl-2-methoxyB)A, 3-(4-Glucuronido-2-methoxybenzylidene)-anabaseine], the “RELATIVE A7/A4B2 SELECTIVITY” value [1] was 9.40.
With `C(=C1/CCCN=C1c1cccnc1)/c1ccc2c(c1)OCCO2` [3-[3,4-(Ethylenedioxy)benzylidene]-anabaseine] the logP [2] was 3.1, the pKa [3, 5] was 7.56 ± 0.03 and the “% ionized” value [3] was 59.11%. For the same compound, the Ki [4] was 0.52 ± 0.01 µM, the “Ki α4β2/α7 Ratio” value [1] was 2.60 and the Ki [1] was 0.2 ± 0.01 µM.
For `C(=C1/CCCN=C1c1cccnc1)/c1ccc2c(c1)OCO2` [3-[3,4-(Methylenedioxy)benzylidene]-anabaseine], the logP [2] was 2.43, the pKa [3, 5] was 7.64 ± 0.04 and the “% ionized” value [3] was 63.48%. For the same compound, the Ki [4] was 0.7 ± 0.07 µM, the “Ki α4β2/α7 Ratio” value [1] was 3.04 and the Ki [1] was 0.23 ± 0.002 µM.
For `COc1ccc2cc(/C=C3\CCCN=C3c3cccnc3)ccc2c1` [3-[(6-Methoxy-naphth-2-yl)-methylene]-anabaseine dihydrochloride], the logP [2] was 2.65, the pKa [3, 5] was 7.29 ± 0.12 and the “% ionized” value [3] was 43.67%. The Ki [4] was 0.6 ± 0.1 µM, the “Ki α4β2/α7 Ratio” value [1] was 1.62 and the Ki [1] was 0.37 ± 0.03 µM.
For `C(=C1/CCCN=C1c1cccnc1)/c1cc2ccccc2o1` [3-[(Benzofuran-2-yl)methylene]-anabaseine], the logP [2] was 3.86 ± 0.4, the PKa [3, 5] was 9/2/04 and the “% ionized” value [3] was 33.90%. The Ki [4] was 5.92 ± 1.06 µM, the “Ki α4β2/α7 Ratio” value [1] was 39.5 and the Ki [1] was 0.15 ± 0.003 µM.
For `c1cncc(C2=NCCCC2)c1` [Anabaseine, reference compound], the “RELATIVE A7/A4B2 SELECTIVITY” value [1] was 0.69.
In the case of `COc1ccc(/C=C2\CCCN=C2c2cccnc2)c(OC)c1` [DMXBA (GTS-21), (E)-3-(2,4-dimethoxybenzylidene)-3,4,5,6-tetrahydro-2,3′-bipyridine, reference compound], the “RELATIVE A7/A4B2 SELECTIVITY” value [1] is reported as 1.00.
For `COc1ccc(C=C2C(c3cccnc3)=NCCC2C)c(OC)c1` (stereo not drawn) [Least selective enantiomer of 4-Methyl-DMXBA, 3-(2,4-dimethoxybenzylidene)-(4-methyl)-3,4,5,6-tetrahydro-2,3′-bipyridine], the “RELATIVE A7/A4B2 SELECTIVITY” value ([1]; listed as 4-methyl-DMXBA enantiomer which had a longer retention time) was 1.28.
In the case of `COc1ccc(C=C2CC(C)CN=C2c2cccnc2)c(OC)c1` (stereo not drawn) [Least selective enantiomer of 5-Methyl-DMXBA, 3-(2,4-dimethoxybenzylidene)-(5-methyl)-3,4,5,6-tetrahydro-2,3′-bipyridine], the “RELATIVE A7/A4B2 SELECTIVITY” value [1] is reported as 1.03.
For `COc1ccc(C=C2CCC(C)N=C2c2cccnc2)c(OC)c1` (stereo not drawn) [Least selective enantiomer of 6-Methyl-DMXBA, 3-(2,4-dimethoxybenzylidene)-(6-methyl)-3,4,5,6-tetrahydro-2,3′-bipyridine], the “RELATIVE A7/A4B2 SELECTIVITY” value [1] was 2.93.
For `COc1ccc(C=C2C(c3cccnc3)=NCCC2C)c(OC)c1` (stereo not drawn) [Most selective enantiomer of 4-Methyl-DMXBA, 3-(2,4-dimethoxybenzylidene)-(4-methyl)-3,4,5,6-tetrahydro-2,3′-bipyridine], the “RELATIVE A7/A4B2 SELECTIVITY” value [1] was 8.34 and the “relative alpha7 nAChR (versus alpha4beta2) receptor binding selectivity, higher than that of the other enantiomer” value ([1]; rat brain nAChR, compared with the other enantiomer) was 6.5 fold.
In the case of `COc1ccc(C=C2CC(C)CN=C2c2cccnc2)c(OC)c1` (stereo not drawn) [Most selective enantiomer of 5-Methyl-DMXBA, 3-(2,4-dimethoxybenzylidene)-(5-methyl)-3,4,5,6-tetrahydro-2,3′-bipyridine], the “RELATIVE A7/A4B2 SELECTIVITY” value [1] is reported as 2.34.
In the case of `COc1ccc(C=C2CCC(C)N=C2c2cccnc2)c(OC)c1` (stereo not drawn) [Most selective enantiomer of 6-Methyl-DMXBA, 3-(2,4-dimethoxybenzylidene)-(6-methyl)-3,4,5,6-tetrahydro-2,3′-bipyridine], the “RELATIVE A7/A4B2 SELECTIVITY” value [1] is reported as 5.34.
